# Laboratory results taken from patent US20150299188A1, “HETEROCYCLIC COMPOUND” (priority 2012, published 2015).
# Test system: FLAP (5-lipoxygenase activating protein)
# Experiment: In vitro binding test: displacement of [3H]-7-chloro-3-(5-((3-fluoropyridin-2-yl)methoxy)-2-methylphenyl)-3,4-dihydroquinazolin-2(1H)-one from Sf9 microsome fractions
# Design: species or system human and mouse
# Details: Sf9 microsome fractions expressing FLAP; 100% = radioligand binding with 10 μM sodium 3-(3-(tert-butylsulfanyl)-1-(4-chlorobenzyl)-5-isopropyl-1H-indol-2-yl)-2,2-dimethylpropanoate, 0% = DMSO; test compound concentration not given
# Procedure: As an assay buffer, 100 mM Tris-HCl, pH 7.5, 140 mM NaCl, 2 mM EDTA, 0.5 mM dithiothreitol, 5% glycerol, 0.05% Tween20 was used. Sf9 microsome fractions expressing human and mouse FLAPs were dispensed by 50 μL to a 96-well plate at 2 μg/mL. Furthermore, a test compound (25 μL) diluted 4-fold of the final concentration with the assay buffer was added and mixed therewith, and the mixture was incubated at room temperature for 10 min. Furthermore, 120 nM [^3H]-7-chloro-3-(5-((3-fluoropyridin-2-yl)methoxy)-2-methylphenyl)-3,4-dihydroquinazolin-2(1H)-one was added by 25 μL, and mixed therewith, and the mixture was incubated at room temperature for 60 min. Thereafter, the cells were transferred to a 96-well GF/B Unifilter plate with a FilterMate cell harvester, and washed 3 times with a wash buffer (100 mM Tris-HCl pH 7.5, 0.05% Tween20, 200 μL) cooled to 4° C. The GF/B Unifilter plate was dried at 37° C., Microscint 0 was added and measured by TopCount NXT (PerkinElmer). As for the inhibitory activity, the inhibitory rate was calculated wherein the [^3H]-7-chloro-3-(5-((3-fluoropyridin-2-yl)methoxy)-2-methylphenyl)-3,4-dihydroquinazolin-2(1H)-one binding amount in the presence of 10 μM sodium 3-(3-(tert-butylsulfanyl)-1-(4-chlorobenzyl)-5-isopropyl-1H-indol-2-yl)-2,2-dimethylpropanoate was 100%, and the [^3H]-7-chloro-3-(5-((3-fluoropyridin-2-yl)methoxy)-2-methylphenyl)-3,4-dihydroquinazolin-2(1H)-one binding amount in the presence of DMSO was 0%.
row,SMILES,inhibitory rate (%)
1,"O=C1Nc2cc(-c3n[nH]c(=O)o3)nc(C3CC3)c2CN1c1cc2c(cc1Cl)CCC(c1ncccc1F)O2 (centres unmarked) [Example 117, 3-(6-chloro-2-(3-fluoropyridin-2-yl)-3,4-dihydro-2H-chromen-7-yl)-5-cyclopropyl-7-(5-oxo-4,5-dihydro-1,3,4-oxadiazol-2-yl)-3,4-dihydropyrido[4,3-d]pyrimidin-2(1H)-one]",106%
2,"O=C1Nc2ccnc(C(F)(F)F)c2CN1c1cc2c(cc1F)CCC(c1ncccc1F)O2 (centres unmarked) [Example 68, 3-(6-fluoro-2-(3-fluoropyridin-2-yl)-3,4-dihydro-2H-chromen-7-yl)-5-(trifluoromethyl)-3,4-dihydropyrido[4,3-d]pyrimidin-2(1H)-one]",113%
3,"O=C1Nc2c(C3=CCOCC3)ncc(Cl)c2CN1c1cc2c(cc1Cl)CCC(c1ncccc1F)O2 (centres unmarked) [Example 127, 5-chloro-3-(6-chloro-2-(3-fluoropyridin-2-yl)-3,4-dihydro-2H-chromen-7-yl)-8-(3,6-dihydro-2H-pyran-4-yl)-3,4-dihydropyrido[3,4-d]pyrimidin-2(1H)-one]",98%
4,"Cc1cc2c(cc1N1Cc3c(Cl)cnc(C)c3NC1=O)OC(c1ncccc1F)CC2 (centres unmarked) [Example 129, 5-chloro-3-(2-(3-fluoropyridin-2-yl)-6-methyl-3,4-dihydro-2H-chromen-7-yl)-8-methyl-3,4-dihydropyrido[3,4-d]pyrimidin-2(1H)-one]",114%
5,"Cc1cc2c(cc1N1Cc3c(ccnc3C(=O)NC3CC3)NC1=O)OC(c1ncccc1F)CC2 (centres unmarked) [Example 32, N-cyclopropyl-3-(2-(3-fluoropyridin-2-yl)-6-methyl-3,4-dihydro-2H-chromen-7-yl)-2-oxo-1,2,3,4-tetrahydropyrido[4,3-d]pyrimidine-5-carboxamide]",101%
6,"Cc1cc2c(cc1N1Cc3c(Cl)cnc(N(C)C)c3NC1=O)OC(c1ncccc1F)CC2 (centres unmarked) [Example 165, 5-chloro-8-(dimethylamino)-3-(2-(3-fluoropyridin-2-yl)-6-methyl-3,4-dihydro-2H-chromen-7-yl)-3,4-dihydropyrido[3,4-d]pyrimidin-2(1H)-one]",104%
7,"Cc1cc2c(cc1N1Cc3cc(Cl)ncc3NC1=O)OC(c1ncccc1F)CC2 (centres unmarked) [Example 43, 6-chloro-3-(2-(3-fluoropyridin-2-yl)-6-methyl-3,4-dihydro-2H-chromen-7-yl)-3,4-dihydropyrido[3,4-d]pyrimidin-2 (1H)-one]",107%
8,"O=C1Nc2ccnc(Cl)c2CN1c1cc2c(cc1Cl)CC[C@H](c1ncccc1F)O2 [Example 3, 5-chloro-3-((2R)-6-chloro-2-(3-fluoropyridin-2-yl)-3,4-dihydro-2H-chromen-7-yl)-3,4-dihydropyrido[4,3-d]pyrimidin-2(1H)-one]",97%
9,"Cc1cc2c(cc1N1Cc3cnccc3NC1=O)OC(c1ncccc1F)CC2 (centres unmarked) [Example 29, 3-(2-(3-fluoropyridin-2-yl)-6-methyl-3,4-dihydro-2H-chromen-7-yl)-3,4-dihydropyrido[4,3-d]pyrimidin-2(1H)-one]",99%
10,"Cc1cc2c(cc1N1Cc3c(Cl)cnc(-c4c(C)noc4C)c3NC1=O)OC(c1ncccc1F)CC2 (centres unmarked) [Example 10, 5-chloro-8-(3,5-dimethyl-1,2-oxazol-4-yl)-3-(2-(3-fluoropyridin-2-yl)-6-methyl-3,4-dihydro-2H-chromen-7-yl)-3,4-dihydropyrido[3,4-d]pyrimidin-2(1H)-one]",94%
11,"O=C1Nc2nccc(OCC(F)(F)F)c2CN1c1cc2c(cc1Cl)CCC(c1ncccc1F)O2 (centres unmarked) [Example 61, 3-(6-chloro-2-(3-fluoropyridin-2-yl)-3,4-dihydro-2H-chromen-7-yl)-5-(2,2,2-trifluoroethoxy)-3,4-dihydropyrido[2,3-d]pyrimidin-2(1H)-one]",91%
12,"CN(C)C(=O)c1cc2c(c(C3CC3)n1)CN(c1cc3c(cc1Cl)CCC(c1ncccc1F)O3)C(=O)N2 (centres unmarked) [Example 150, 3-(6-chloro-2-(3-fluoropyridin-2-yl)-3,4-dihydro-2H-chromen-7-yl)-5-cyclopropyl-N,N-dimethyl-2-oxo-1,2,3,4-tetrahydropyrido[4,3-d]pyrimidine-7-carboxamide]",98%

# Other lines, results leading:
row,inhibitory rate (%),SMILES
1,103%,"Cn1c(=O)n(-c2ccc3c(c2)OC(c2c(F)cccc2F)CC3)c(=O)c2ccccc21 (centres unmarked) [Example 329, 3-(2-(2,6-difluorophenyl)-3,4-dihydro-2H-chromen-7-yl)-1-methylquinazoline-2,4(1H,3H)-dione]"
2,104%,"Cc1ccc(OCc2ncccc2F)cc1N1Cc2c(C#N)cccc2NC1=O [Example 298, 3-(5-((3-fluoropyridin-2-yl)methoxy)-2-methylphenyl)-2-oxo-1,2,3,4-tetrahydroquinazoline-5-carbonitrile]"
3,106%,"O=C1Nc2c(C3CC3)ncc(F)c2CN1c1cc2c(cc1Cl)CCC(c1ncccc1F)O2 (centres unmarked) [Example 166, 3-(6-chloro-2-(3-fluoropyridin-2-yl)-3,4-dihydro-2H-chromen-7-yl)-8-cyclopropyl-5-fluoro-3,4-dihydropyrido[3,4-d]pyrimidin-2(1H)-one]"
4,107%,"Cc1cc2c(cc1-n1c(=O)[nH]c3ccccc3c1=O)OC(c1ncccc1F)CC2 (centres unmarked) [Example 327, 3-(2-(3-fluoropyridin-2-yl)-6-methyl-3,4-dihydro-2H-chromen-7-yl)quinazoline-2,4(1H,3H)-dione]"
5,95%,"CCCCOC(=O)CCc1ccc(OCc2ncccc2F)cc1N1Cc2ccccc2NC1=O [Example 228, butyl 3-(4-((3-fluoropyridin-2-yl)methoxy)-2-(2-oxo-1,4-dihydroquinazolin-3(2H)-yl)phenyl)propanoate]"
6,111%,"Cc1ccc(OCc2ncccc2F)cc1N1Cc2c(Cl)cccc2N(C)C1=O [Example 269, 5-chloro-3-(5-((3-fluoropyridin-2-yl)methoxy)-2-methylphenyl)-1-methyl-3,4-dihydroquinazolin-2(1H)-one]"
7,54%,"Cc1ccc(OCc2c(F)cc(Cl)cc2F)cc1N1Cc2ccccc2NC1=O [Example 174, 3-(5-((4-chloro-2,6-difluorobenzyl)oxy)-2-methylphenyl)-3,4-dihydroquinazolin-2(1H)-one]"
8,113%,"O=C1Nc2ccccc2CN1c1cc(OCc2ncccc2F)ccc1Br [Example 212, 3-(2-bromo-5-((3-fluoropyridin-2-yl)methoxy)phenyl)-3,4-dihydroquinazolin-2(1H)-one]"
9,106%,"COC(=O)c1ccc(OCc2ncccc2F)cc1N1Cc2ccccc2NC1=O [Example 219, methyl 4-((3-fluoropyridin-2-yl)methoxy)-2-(2-oxo-1,4-dihydroquinazolin-3(2H)-yl)benzoate]"
10,109%,"CCc1ccc(OCc2c(F)cccc2F)cc1N1Cc2ccc(C(C)(C)O)cc2NC1=O [Example 178, 3-(5-((2,6-difluorobenzyl)oxy)-2-ethylphenyl)-7-(2-hydroxypropan-2-yl)-3,4-dihydroquinazolin-2(1H)-one]"
11,113%,"Cc1ccc(OCc2ncccc2F)cc1N1Cc2ccc(Cl)cc2NC1=O [Example 244, 7-chloro-3-(5-((3-fluoropyridin-2-yl)methoxy)-2-methylphenyl)-3,4-dihydroquinazolin-2(1H)-one]"
12,108%,"O=c1[nH]c2cccc(Cl)c2c(=O)n1-c1cc(OCc2ncccc2F)c(F)cc1Cl [Example 364, 5-chloro-3-(2-chloro-4-fluoro-5-((3-fluoropyridin-2-yl)methoxy)phenyl)quinazoline-2,4(1H,3H)-dione]"
13,100%,"COC(=O)c1ccc2c(c1)NC(=O)N(c1cc(OCc3nccs3)ccc1C)C2 [Example 237, methyl 3-(2-methyl-5-(1,3-thiazol-2-ylmethoxy)phenyl)-2-oxo-1,2,3,4-tetrahydroquinazoline-7-carboxylate]"
14,81%,"Cc1ccc(OCc2c(F)cccc2F)cc1N1Cc2ccc(C(C)(C)O)cc2NC1=O [Example 180, 3-(5-((2,6-difluorobenzyl)oxy)-2-methylphenyl)-7-(2-hydroxypropan-2-yl)-3,4-dihydroquinazolin-2(1H)-one]"
15,68%,"O=C(O)CCCCc1ccc(OCc2ncccc2F)cc1N1Cc2ccccc2NC1=O [Example 251, 5-(4-((3-fluoropyridin-2-yl)methoxy)-2-(2-oxo-1,4-dihydroquinazolin-3(2H)-yl)phenyl)pentanoic acid]"
16,64%,"O=C1Nc2ccccc2CN1c1cc(OCc2ncccc2F)ccc1CN1CCOCC1 [Example 313, 3-(5-((3-fluoropyridin-2-yl)methoxy)-2-(morpholin-4-ylmethyl)phenyl)-3,4-dihydroquinazolin-2(1H)-one]"
17,101%,"Cc1ccc(OCc2ncccc2F)cc1-n1c(=O)[nH]c2ncccc2c1=O [Example 343, 3-(5-((3-fluoropyridin-2-yl)methoxy)-2-methylphenyl)pyrido[2,3-d]pyrimidine-2,4(1H,3H)-dione]"
